Here are results for 22 compounds from patent US20080306054A1, “Pharmaceutical Compounds” (ASTEX THERAPEUTICS LIMITED, priority 2005, published 2008).

The target in assay [1] is T1, Human Hsp90α N-terminal domain (Homo sapiens, UniProt P07900).
T1 construct: purification of the Human Hsp90α N-terminal domain were performed according to published methods; made in house
Description: Isothermal titration calorimetry (ITC). The following applies: pH 7.4. It counts as binding. The protocol:
The ability of the compounds of the invention to bind to human Hsp90 proteins was determined using isothermal titration calorimetry.
Isothermal titration calorimetry (ITC) experiments were performed with a VP-ITC titration calorimeter (Microcal Inc., Northampton, Mass., USA). […] All solutions were filtered and degassed prior to a titration being carried out. The enthalpy change resulting from each injection of ligand was obtained through integration of the calorimetric signal. Data were analysed using Origin 7.0 (Microcal Software Inc., Northampton, Mass.). Heats of dilution were estimated using the final injections of each individual titration and subtracted before data fitting. Different ITC experimental formats were employed in order to obtain compound dissociation constants (Kd's) over a wide range of affinities. […] In this type of experiment the stoichiometry parameter (N) was locked at 1 for data fitting.

The next assay concerns HCT116 cell line. In words: Anti-proliferative activity, Alamar Blue assay. It counts as cell-based. The note with it: HCT-116, human colon cancer cell line HCT116, 72 hours with compound, read-out: IC50 values against the HCT116 cell line. The protocol:
The anti-proliferative activities of compounds of the invention can be determined by measuring the ability of the compounds to inhibition of cell growth in a number of cell lines such as the human colon cancer cell line HCT116. Inhibition of cell growth is measured using the Alamar Blue assay (Nociari, M. M, Shalev, A., Benias, P., Russo, C. Journal of Immunological Methods 1998, 213, 157-167). The method is based on the ability of viable cells to reduce resazurin to its fluorescent product resorufin. For each proliferation assay cells are plated onto 96 well plates and allowed to recover for 16 hours prior to the addition of inhibitor compounds for a further 72 hours. At the end of the incubation period 10% (v/v) Alamar Blue is added and incubated for a further 6 hours prior to determination of fluorescent product at […]. In the case of the non-proliferating cell assay cells are maintained at confluence for 96 hour prior to the addition of inhibitor compounds for a further 72 hours. The number of viable cells is determined by Alamar Blue assay as before. Cell lines can be obtained from the ECACC (European Collection of cell Cultures).
(Resazurin is reduced to fluorescent resorufin, in cell work by metabolically active cells.)

pIC50, pKd: −log10 of the molar value.

For orientation: pKd means −log10 of the Kd, conventionally taken in molar units. A low value points to a large Kd. `CC(C)c1cc(C(=O)N2CCOCC2)ccc1O` [Example 20, (4-Hydroxy-3-isopropyl-phenyl)-morpholin-4-yl-methanone] gave a pKd in assay [1] greater than 6.00. One may read the pIC50 as the IC50 on a negative log10 scale, so that one unit is a factor of ten. For the compound `CC(C)c1cc(C(=O)N2CC[C@@H](O)C2)c(O)cc1O` (stereo in doubt) [Example 61, (2,4-dihydroxy-5-isopropyl-phenyl)-(3-hydroxy-pyrrolidin-1yl)-methanone], the negative logarithm of the IC50 (pIC50) in the assay with HCT116 cell line is greater than 5.00. In the case of `CC(C)c1cc(C(=O)N2CCC(CO)CC2)c(O)cc1O` [Example 58, (2,4-dihydroxy-5-isopropyl-phenyl)-(4-hydroxymethyl-piperidin-yl)-methanone], in the assay with HCT116 cell line, the pIC50 is greater than 5.00.

On to `CC(C)c1cc(C(=O)N2CCOCC2)c(O)cc1O` [Example 29, (2,4-Dihydroxy-5-isopropyl-phenyl)-morpholin-4-yl-methanone], for which the pKd in assay [1] was greater than 6.00. With `CC(C)c1cc(C(=O)N2CCN(C)CC2)c(O)cc1O` [Example 66, (2,4-dihydroxy-5-isopropyl-phenyl)-(4-methyl-piperazin-1-yl)-methanone], the pIC50 in the assay with HCT116 cell line was greater than 5.00. `CC(C)(C)c1cc(C(=O)N2CCC(O)(c3ccccc3)CC2)ccc1O` [Example 37, (3-tert-Butyl-4-hydroxy-phenyl)-(4-hydroxy-4-phenyl-piperidin-1-yl)-methanone]: the negative-log IC50 (pIC50) with HCT116 cell line is greater than 5.00. In the case of `CC(C)c1cc(C(=O)N(Cc2ccccc2)c2ccc(CN3CCOCC3)cc2)c(O)cc1O` [Example 65, N-benzyl-2,4-dihydroxy-5-isopropyl-N-(4-morpholin-4-ylmethyl-phenyl)-benzamide], the pKd in assay [1] is greater than 6.00. Moreover, in the assay on HCT116 cell line, the pIC50 was greater than 5.00. As to `CC(C)c1cc(C(=O)N(C)c2ccc(CN3CCOCC3)cc2)c(O)cc1O` [Example 64, 2,4-dihydroxy-5-isopropyl-N-methyl-N-(4-morpholin-4-yl-methyl-phenyl)-benzamide], the pIC50 in the assay with HCT116 cell line is greater than 5.00. `CC(C)c1cc(C(=O)N2CCOC(CO)C2)c(O)cc1O` (stereo not shown) [Example 55, (2,4-dihydroxy-5-isopropyl-phenyl)-(2-hydroxymethyl-morpholin-4yl)-methanone] gave a pKd in assay [1] greater than 6.00. In the assay with HCT116 cell line, the pIC50 was greater than 5.00. For the compound `CC(C)c1cc(C(=O)N(c2ccc(F)cc2)C2CCOCC2)c(O)cc1O` [Example 73, N-(4-fluoro-phenyl)-2,4-dihydroxy-5-isopropyl-N-(tetrahydro-pyran-4-yl)-benzamide], the pKd in assay [1] was greater than 6.00. Further, in the assay on HCT116 cell line, the pIC50 was greater than 5.00. Regarding `CC(C)c1cc(C(=O)N(C)c2ccc(F)cc2)c(O)cc1O` [Example 70, N-(4-fluoro-phenyl)-2,4-dihydroxy-5-isopropyl-N-methyl-benzamide], the negative-log IC50 (pIC50) in the assay with HCT116 cell line was greater than 5.00. Turning to `CC(C)c1cc(C(=O)N2CCS(=O)(=O)CC2)c(O)cc1O` [Example 68, (2,4-dihydroxy-5-isopropyl-phenyl)-(1,1-dioxo-1lambda*6*-thiomorpholin-4-yl)-methanone], the negative logarithm of the IC50 (pIC50) in the assay on HCT116 cell line was greater than 5.00. The same measure, in the same setting: the same measure for `CCOC(=O)CC1CCN(C(=O)c2cc(C(C)C)c(O)cc2O)CC1` [Example 60, [1-(2,4-dihydroxy-5-isopropyl-benzoyl)-piperidin-4-yl)-acetic acidethyl ester]: greater than 5.00. Consider `CC(C)c1cc(C(=O)N2CCC(CCO)CC2)c(O)cc1O` [Example 57], for which, in assay [1], the pKd was greater than 6.00. Further, the pIC50 in the assay with HCT116 cell line was greater than 5.00.

Consider `CC(C)c1cc(C(=O)N2CCN(CCN(C)C)CC2)c(O)cc1O` [Example 56, (2,4-dihydroxy-5-isopropyl-phenyl)-[4-(2-dimethylamino-ethyl)-piperazin-1-yl]-methanone], for which the pKd in assay [1] is greater than 6.00. Besides, the pIC50 with HCT116 cell line was greater than 5.00. For the compound `CC1CN(C(=O)c2cc(C(C)C)c(O)cc2O)CC(C)O1` (stereo not shown) [Example 59, (2,4-dihydroxy-5-isopropyl-phenyl)-(2,6-dimethyl-morpholin-4-yl)-methanone], the pIC50 with HCT116 cell line was greater than 5.00.

As to `CC(C)c1cc(C(=O)N(CCC#N)c2ccc(F)cc2)c(O)cc1O` [Example 72, N-(2-cyano-ethyl)-N-(4-fluoro-phenyl)-2,4-dihydroxy-5-isopropyl-benzamide], the pIC50 in the assay on HCT116 cell line was greater than 5.00.

As to `CNC(=O)CN(C(=O)c1cc(C(C)C)c(O)cc1O)c1ccc(F)cc1` [Example 62, N-(4-fluoro-phenyl)-2,4-dihydroxy-5-isopropyl-N-methylcarbamoylmethyl-benzamide], the pIC50 in the assay with HCT116 cell line is greater than 5.00.

Take `CC(C)c1cc(C(=O)N2CCN(C(=O)OC(C)(C)C)CC2)c(O)cc1O` [Example 69, 4-(2,4-dihydroxy-5-isopropyl-benzoyl)-piperazine-1-carboxylic acidtert-butyl ester]: in the assay with HCT116 cell line, the negative-log IC50 (pIC50) is greater than 5.00.

`CC(C)(C)c1cc(C(=O)N2CCOCC2)c(O)cc1O` [Example 54, (5-tert-Butyl-2,4-dihydroxy-phenyl)-morpholin-4-yl-methanone] had a pKd in assay [1] greater than 6.00. The pIC50 with HCT116 cell line was greater than 5.00. Turning to `CCN(C(=O)c1cc(C(C)C)c(O)cc1O)c1ccc(F)cc1` [Example 71, N-ethyl-N-(4-fluoro-phenyl)-2,4-dihydroxy-5-isopropyl-benzamide], the pIC50 in the assay with HCT116 cell line was greater than 5.00. On to `CNC(=O)CN(C(=O)c1cc(C(C)C)c(O)cc1O)c1ccc(CN2CCOCC2)cc1` [Example 63, 2,4-dihydroxy-5-isopropyl-N-methylcarbamoylmethyl-N-(4-morpholin-4-ylmethyl-phenyl)-benzamide], for which the pIC50 in the assay with HCT116 cell line was greater than 5.00.
